Counter-ions that a name gives are not always drawn.

What is called IC50 is the midpoint of a concentration-inhibition curve.

The assay addresses T1, angiotensin II receptor (Rattus norvegicus, UniProt P25095).
T1 sequence (P25095 1-359): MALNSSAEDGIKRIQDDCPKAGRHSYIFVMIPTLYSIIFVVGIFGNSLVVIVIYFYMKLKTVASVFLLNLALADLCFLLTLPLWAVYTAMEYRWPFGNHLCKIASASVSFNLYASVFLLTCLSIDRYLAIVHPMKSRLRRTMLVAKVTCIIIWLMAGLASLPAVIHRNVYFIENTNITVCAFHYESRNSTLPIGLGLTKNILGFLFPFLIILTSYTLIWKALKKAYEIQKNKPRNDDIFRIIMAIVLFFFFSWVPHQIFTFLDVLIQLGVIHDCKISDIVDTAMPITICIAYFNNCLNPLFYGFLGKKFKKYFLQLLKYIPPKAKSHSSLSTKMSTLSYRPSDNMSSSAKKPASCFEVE
As to the kind of experiment: Inhibition of binding of angiotensin II to rat smooth muscle cells (125I-AII). Conditions: ^125 I-Tyr^4-angiotensin II, smooth muscle cells from rat aorta, room temperature, 1 hour; read-out: inhibitory action (IC50) on the binding of angiotensin II to the receptor.
As for `CCCCc1nc(Cl)c(C=O)n1Cc1ccc2nn(-c3ccccc3C(=O)O)c(Br)c2c1` [Example 6, 2-butyl-4-chloro-1-[3-bromo-2-(2-carboxyphenyl)-2H-indazol-5-yl]methyl-1H-imidazole-5-carbaldehyde], the IC50 came to 19 nM.

For the molecule `CCCCc1nc(Cl)c(C=O)n1Cc1ccc2nn(-c3ccccc3C(=O)O)cc2c1` [Example 7, 2-butyl-4-chloro-1-[2-(2-carboxyphenyl)-2H-indazol-5-yl]methyl-1H-imidazole-5-carbaldehyde], the IC50 came out at 130 nM.

Turning to `CCCCc1nc(Cl)c(CO)n1Cc1ccc2nn(-c3ccccc3C(=O)O)cc2c1` [Example 5, 2-butyl-4-chloro-1-[2-(2-carboxyphenyl)-2H-indazol-5-yl]methyl-5-(hydroxymethyl)-1H-imidazole], the IC50 turned out to be 40 nM.

On to `CCCCc1nc(Cl)c(C(=O)O)n1Cc1ccc2nn(-c3ccccc3C(=O)O)c(Br)c2c1` [Example 9, disodium 1-[3-bromo-2-(2-carboxyphenyl)-2H-indazol-5-yl]methyl-2-butyl-4-chloro-1H-imidazole-5-carboxylate], for which the half-maximal inhibitory concentration (IC50) was 2.5 nM.

`CCCCc1nc(Cl)c(CO)n1Cc1ccc2nn(-c3ccccc3-c3nnn[nH]3)c(Br)c2c1` [Example 14, 1-{[3-bromo-2-[2-(1H-tetrazol-5-yl)phenyl]-2H-indazol-5-yl]methyl}-2-butyl-4-chloro-5-(hydroxymethyl)-1H-imidazole]: the IC50 was 2.5 nM.

Take `CCc1nc2c(C)cc(C)nc2n1Cc1ccc2nn(-c3ccccc3-c3nnn[nH]3)c(Cl)c2c1` [Example 24, 3-{[3-chloro-2-[2-(1H-tetrazol-5-yl)phenyl]-2H-indazol-5-yl]methyl}-2-ethyl-5,7-dimethyl-3H-imidazo[4,5-b]pyridine]: the IC50 is 0.8 nM.

Consider `CCCCc1nc2cccnc2n1Cc1ccc2nn(-c3ccccc3C(=O)O)c(Br)c2c1` [sodium salt], for which the half-maximal inhibitory concentration (IC50) turned out to be 6.7 nM.

As to `CCCCc1nc(Cl)c(CO)n1Cc1ccc2nn(-c3ccccc3C(=O)O)c(Br)c2c1` [Example 4, 1-[3-bromo-2-(2-carboxyphenyl)-2H-indazol-5-yl]methyl-2-butyl-4-chloro-5-(hydroxymethyl)-1H-imidazole], the IC50 came to 4.3 nM.

Regarding `CCc1nc2c(C)cc(C)nc2n1Cc1ccc2nn(-c3ccccc3-c3nnn[nH]3)c(Br)c2c1` [Example 21, 3-{[3-bromo-2-[2-(1H-tetrazol-5-yl)phenyl]-2H-indazol-5-yl]methyl}-2-ethyl-5,7-dimethyl-3H-imidazo[4,5-b]pyridine], the half-maximal inhibitory concentration (IC50) was 1.1 nM.

For `CCCc1nc2c(C)ccnc2n1Cc1ccc2nn(-c3ccccc3-c3nnn[nH]3)c(Br)c2c1` [Example 22, 3-{[3-bromo-2-[2-(1H-tetrazol-5-yl)phenyl]-2H-indazol-5-yl]methyl}-7-methyl-2-propyl-3H-imidazo[4,5-b]pyridine], the IC50 came out at 1.8 nM.

For the molecule `CCc1nc2c(C)cc(C)nc2n1Cc1ccc2nn(-c3ccccc3C(=O)O)c(Br)c2c1`, the IC50 is 2 nM.

`CCc1nc2c(C)cc(C)nc2n1Cc1ccc2nn(-c3cccc(Cl)c3-c3nnn[nH]3)c(Br)c2c1` [Example 25, 3-{[3-bromo-2-[3-chloro-2-(1H-tetrazol-5-yl)-phenyl]-2H-indazol-5-yl]methyl}-2-ethyl-5,7-dimethyl-3H-imidazo[4,5-b]pyridine]: the IC50 was 0.72 nM.

In the case of `CCCCc1nc(C(=O)O)c(Cl)n1Cc1ccc2nn(-c3ccccc3C(=O)O)c(Br)c2c1` [Example 10, disodium 2-butyl-5-chloro-1-[3-bromo-2-(2-carboxyphenyl)-2H-indazol-5-yl]methyl-1H-imidazole-4-carboxylate], the concentration for half-maximal inhibition (IC50) was determined as 720 nM.

Take `CCCCc1nc(Cl)c(C=O)n1Cc1ccc2nn(-c3ccccc3-c3nnn[nH]3)c(Br)c2c1` [Example 12, 1-{[3-bromo-2-[2-(1H-tetrazol-5-yl)phenyl]-2H-indazol-5-yl]methyl}-2-butyl-4-chloro-1H-imidazole-5-carbaldehyde]: the IC50 was determined as 60 nM.

Consider `CCCCc1nc2cccnc2n1Cc1ccc2nn(-c3ccccc3-c3nnn[nH]3)c(Br)c2c1` [Example 23, 3-{[3-bromo-2-[2-(1H-tetrazol-5-yl)phenyl]-2H-indazol-5-yl]methyl}-2-butyl-3H-imidazo[4,5-b]pyridine], for which the half-inhibitory concentration (IC50) amounted to 3.1 nM.

For `CCCc1nc2c(C)ccnc2n1Cc1ccc2nn(-c3ccccc3C(=O)O)c(Br)c2c1` [Example 20, 3-[3-bromo-2-(2-carboxyphenyl)-2H-indazol-5-yl]-methyl-7-methyl-2-propyl-3H-imidazo[4,5-b]pyridine], the IC50 worked out at 1.4 nM.

(Values after US5387684A, “Isoindazole compound” (The Green Cross Corporation, priority 1992, dated 1995).)
